{"source": "patent US8557796B2", "about": "“Substituted 1-oxa-2,8-diaza-spiro [4,5] dec-2-ene derivatives and related treatment methods” (Gruenenthal GmbH, priority 2001, dated 2013)"}
{"system": "batrachotoxin (BTX) binding site (binding site 2) of the sodium channel", "assay": "Bond test on the sodium channel, binding site 2 (BTX bond), [3H]-batrachotoxinin A20 α-benzoate displacement", "conditions": "rat cerebrocortex synaptosomes", "units": {"BTX bond, 10 μM, % inhibition": "%"}}
{"smiles": "O=C(Cc1ccc(F)c(F)c1)N1CCN(C(=O)C2=NOC3(CCN(S(=O)(=O)c4cccc(C(F)(F)F)c4)CC3)C2)CC1", "note": "[Example 93]", "BTX bond, 10 μM, % inhibition": 52}
{"smiles": "O=C(NCc1cccs1)C1=NOC2(CCN(C(=O)COc3cccc(Cl)c3)CC2)C1", "note": "[Example 96, 8-[2-(3-chloro-phenoxy)-acetyl]-1-oxa-2,8-diaza-spiro[4,5]dec-2-ene-3-carboxylic acid (thiophen-2-ylmethyl)-amide]", "BTX bond, 10 μM, % inhibition": 72}
{"smiles": "O=C(C1=NOC2(CCN(S(=O)(=O)c3ccc(OC(F)(F)F)cc3)CC2)C1)N(CCc1ccccc1)Cc1ccccc1", "note": "[Example 97, 8-(4-trifluoromethoxy-benzenesulphonyl)-1-oxa-2,8-diaza-spiro[4,5]dec-2-ene-3-carboxylic acid benzyl-phenethyl-amide]", "BTX bond, 10 μM, % inhibition": 79}
{"smiles": "O=C(C1=NOC2(CCN(S(=O)(=O)c3cc(Cl)ccc3Cl)CC2)C1)N(CCc1ccccc1)Cc1ccccc1", "note": "[Example 98, 8-(2,5-dichloro-benzenesulphonyl)-1-oxa-2,8-diaza-spiro[4,5]dec-2-ene-3-carboxylic acid benzyl-phenethyl-amide]", "BTX bond, 10 μM, % inhibition": 56}
{"smiles": "N#CCCN(Cc1cccnc1)C(=O)C1=NOC2(CCN(S(=O)(=O)c3cc(Cl)ccc3Cl)CC2)C1", "note": "[Example 99, 8-(2,5-dichloro-benzenesulphonyl)-1-oxa-2,8-diaza-spiro[4,5]dec-2-ene-3-carboxylic acid (2-cyano-ethyl)-pyridin-3-ylmethyl-amide]", "BTX bond, 10 μM, % inhibition": 50}
{"smiles": "O=C(NCc1ccccc1)C1=NOC2(CCN(C(=O)c3ccncc3)CC2)C1", "note": "[Example 102, 8-(pyridine-4-carbonyl)-1-oxa-2,8-diaza-spiro[4,5]dec-2-ene-3-carboxylic acid benzylamide]", "BTX bond, 10 μM, % inhibition": 43}
{"smiles": "C=C(C)CN(CC)C(=O)C1=NOC2(CCN(S(=O)(=O)c3ccc(OC(F)(F)F)cc3)CC2)C1", "note": "[Example 103, 8-(4-trifluoromethoxy-benzenesulphonyl)-1-oxa-2,8-diaza-spiro[4,5]dec-2-ene-3carboxylic acid ethyl-(2-methyl-allyl)-amide]", "BTX bond, 10 μM, % inhibition": 53}
{"smiles": "O=C(NCc1cccs1)C1=NOC2(CCN(C(=O)C=Cc3ccccc3)CC2)C1", "note": "[Example 106]", "BTX bond, 10 μM, % inhibition": 62}
{"smiles": "O=C(NCC1CC1)C1=NOC2(CCN(C(=O)c3ccc(SC(F)(F)F)cc3)CC2)C1", "note": "[Example 108, 8-(4-trifluoromethylsulphanyl-benzoyl)-1-oxa-2,8-diaza-spiro[4,5]dec-2-ene-3-carboxylic acid cyclopropylmethyl-amide]", "BTX bond, 10 μM, % inhibition": 43}
{"smiles": "CCSc1ncccc1C(=O)N1CCC2(CC1)CC(C(=O)NCc1ccccc1)=NO2", "note": "[Example 115, 8-(2-ethylsulphanyl-pyridine-3-carbonyl)-1-oxa-2,8-diaza-spiro[4,5]dec-2-ene-3-carboxylic acid benzylamide]", "BTX bond, 10 μM, % inhibition": 48}
{"smiles": "O=C(C1=NOC2(CCN(S(=O)(=O)c3cccc(C(F)(F)F)c3)CC2)C1)N1CCN(c2cc(C(F)(F)F)ccn2)CC1", "note": "[Example 119]", "BTX bond, 10 μM, % inhibition": 72}
{"smiles": "COc1cccc(CCNC(=O)C2=NOC3(CCN(S(=O)(=O)c4ccc(F)cc4)CC3)C2)c1", "note": "[Example 124, 8-(4-fluoro-benzenesulphonyl)-1-oxa-2,8-diaza-spiro[4,5]dec-2-ene-3-carboxylic acid [2-(3-methoxy-phenyl)-ethyl]-amide]", "BTX bond, 10 μM, % inhibition": 54}
{"smiles": "Cc1oc(C(C)(C)C)cc1C(=O)N1CCC2(CC1)CC(C(=O)NC1CCCC1)=NO2", "note": "[Example 126, 8-(5-tert-butyl-2-methyl-furan-3-carbonyl)-1-oxa-2,8-diaza-spiro[4,5]dec-2-ene-3-carboxylic acid cyclopentylamide]", "BTX bond, 10 μM, % inhibition": 56}
{"smiles": "O=C(NCc1cccs1)C1=NOC2(CCN(S(=O)(=O)c3ccc(Cl)cc3)CC2)C1", "note": "[Example 127, 8-(4-chloro-benzenesulphonyl)-1-oxa-2,8-diaza-spiro[4,5]dec-2-ene-3-carboxylic acid (thiophen-2-ylmethyl)-amide]", "BTX bond, 10 μM, % inhibition": 70}
{"smiles": "Cc1ccccc1N1CCN(C(=O)C2=NOC3(CCN(S(=O)(=O)Cc4ccccc4)CC3)C2)CC1", "note": "[Example 133, (8-phenylmethanesulphonyl-1-oxa-2,8-diaza-spiro[4,5]dec-2-en-3-yl)-(4-o-tolyl-piperazin-l-yl)-methanone]", "BTX bond, 10 μM, % inhibition": 47}
{"smiles": "O=C(NCc1cccs1)C1=NOC2(CCN(C(=O)c3ccc(SC(F)(F)F)cc3)CC2)C1", "note": "[Example 135, 8-(4-trifluoromethylsulphanyl-benzoyl)-1-oxa-2,8-diaza-spiro[4,5]dec-2-ene-3-carboxylic acid (thiophen-2-ylmethyl)-amide]", "BTX bond, 10 μM, % inhibition": 85}
{"smiles": "O=C(NCc1ccccc1)C1=NOC2(CCN(S(=O)(=O)c3cccs3)CC2)C1", "note": "[Example 136, 8-(thiophene-2-sulphonyl)-1-oxa-2,8-diaza-spiro[4,5]dec-2-ene-3-carboxylic acid benzylamide]", "BTX bond, 10 μM, % inhibition": 44}
{"smiles": "CC(NC(=O)C1=NOC2(CCN(S(=O)(=O)c3ccc(Cl)s3)CC2)C1)c1cccc2c1OCCO2", "note": "(stereo not drawn) [Example 140, 8-(5-chloro-thiophene-2-sulphonyl)-1-oxa-2,8-diaza-spiro[4,5]dec-2-ene-3-carboxylic acid [1-(2,3-dihydro-benzo[1,4]dioxin-5-yl)-ethyl]-amide]", "BTX bond, 10 μM, % inhibition": 60}
{"smiles": "O=C(NCc1cccs1)C1=NOC2(CCN(C(=O)c3ccc(Br)cc3)CC2)C1", "note": "[Example 141]", "BTX bond, 10 μM, % inhibition": 61}
{"smiles": "CN(C)S(=O)(=O)N1CCC2(CC1)CC(C(=O)N1CCN(C3CCCCCC3)CC1)=NO2", "note": "[Example 144, 3-(4-cycloheptyl-piperazine-1-carbonyl)-1-oxa-2,8-diaza-spiro[4,5]dec-2-ene-8 sulphonic acid dimethylamide]", "BTX bond, 10 μM, % inhibition": 53}
{"smiles": "O=C(NCc1cccs1)C1=NOC2(CCN(C(=O)c3cccc(Cl)c3F)CC2)C1", "note": "[Example 146, 8-(3-chloro-2-fluorobenzoyl)-1-oxa-2,8-diaza-spiro[4,5]dec-2-ene-3-carboxylic acid (thiophen-2-ylmethyl)-amide]", "BTX bond, 10 μM, % inhibition": 67}
{"smiles": "CC(Oc1ccccc1)C(=O)N1CCC2(CC1)CC(C(=O)NCc1ccccc1)=NO2", "note": "(stereo not drawn) [Example 149, 8-(2-phenoxy-propionyl)-1-oxa-2,8-diaza-spiro[4,5]dec-2-ene-3-carboxylic acid benzylamide]", "BTX bond, 10 μM, % inhibition": 40}
{"smiles": "Cc1ccc(F)cc1S(=O)(=O)N1CCC2(CC1)CC(C(=O)NCc1cccs1)=NO2", "note": "[Example 150, 8-(5-fluoro-2-methyl-benzenesulphonyl)-1-oxa-2,8-diaza-spiro[4,5]dec-2-ene-3-carboxylic acid (thiophen-2-ylmethyl)-amide]", "BTX bond, 10 μM, % inhibition": 86}
{"system": "batrachotoxin (BTX) binding site (binding site 2) of the sodium channel", "assay": "Bond test on the sodium channel, binding site 2 (BTX bond), [3H]-batrachotoxinin A20 α-benzoate displacement", "conditions": "rat cerebrocortex synaptosomes, 10 µM", "units": {"BTX bond, 10 μM, % inhibition": "%"}}
{"smiles": "COc1ccc(S(=O)(=O)N2CCC3(CC2)CC(C(=O)NC2CCCC2OCc2ccccc2)=NO3)cc1", "note": "(stereo not drawn) [Example 121, 8-(4-methoxy-benzenesulphonyl)-1-oxa-2,8-diaza-spiro[4,5]dec-2-ene-3-carboxylic acid (2-benzyloxy-cyclopentyl)-amide]", "BTX bond, 10 μM, % inhibition": 42}
